Experimental data reported in PMC12000319, “Proton conductance by human uncoupling protein 1 is inhibited by purine and pyrimidine nucleotides” (The EMBO Journal, 2025).
“And” between values parts separate entries of the source, which are not always exact repeats. Equal entries are not always repeated. Where two headings read alike, the source gives them in different places.

Assays:
UCP1 [1] = system: UCP1; design: method as in Heaton and Nicholls, 1977; Divakaruni et al, 2012; conditions: whole mitochondria; ref Heaton and Nicholls, 1977; Divakaruni et al, 2012; cited from earlier work
UCP1 [2] = biological target: T1, UCP1 (Homo sapiens, UniProt P25874); assay: Isothermal titration calorimetry of nucleotide binding; design: isotherm data point (enthalpy change per injection): unit not given here; conditions: for isotherm data point (enthalpy change per injection): representative isotherm;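 for all read-outs here: purified human UCP1 in cacodylate buffer with lauryl maltose neopentyl glycol and cardiolipin, titrated with nucleotides, isotherms fitted by one-site model yielding ΔH, Kd and stoichiometry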
T1 construct: His8 (N, cleaved yes); Factor Xa protease cleavage site (N, cleaved yes); made in house; host or cells: Saccharomyces cerevisiae strain W303.1B
T1 sequence (P25874 1-307): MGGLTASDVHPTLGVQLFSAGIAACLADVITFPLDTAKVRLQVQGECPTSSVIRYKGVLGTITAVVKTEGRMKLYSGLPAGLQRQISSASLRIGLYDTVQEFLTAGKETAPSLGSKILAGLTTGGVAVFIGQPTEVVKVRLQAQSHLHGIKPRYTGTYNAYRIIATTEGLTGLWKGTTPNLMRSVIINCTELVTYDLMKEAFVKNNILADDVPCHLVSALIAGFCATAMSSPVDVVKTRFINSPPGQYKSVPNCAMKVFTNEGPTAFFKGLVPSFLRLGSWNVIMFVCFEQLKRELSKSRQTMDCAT

human DIC (SLC25A10) = biological target: T2, human DIC (SLC25A10) (Homo sapiens, UniProt Q9UBX3); assay: Differential scanning fluorimetry (nanoDSF) thermal stability shift assay; type: binding; conditions: 1 mM nucleotide, pH 6.0, single repeats (source data Fig. 4A)
T2 construct: His8 (N, cleaved yes); Factor Xa protease cleavage site (N, cleaved yes); made in house; host or cells: Saccharomyces cerevisiae protease-deficient strain BJ2186
T2 sequence (Q9UBX3 1-287): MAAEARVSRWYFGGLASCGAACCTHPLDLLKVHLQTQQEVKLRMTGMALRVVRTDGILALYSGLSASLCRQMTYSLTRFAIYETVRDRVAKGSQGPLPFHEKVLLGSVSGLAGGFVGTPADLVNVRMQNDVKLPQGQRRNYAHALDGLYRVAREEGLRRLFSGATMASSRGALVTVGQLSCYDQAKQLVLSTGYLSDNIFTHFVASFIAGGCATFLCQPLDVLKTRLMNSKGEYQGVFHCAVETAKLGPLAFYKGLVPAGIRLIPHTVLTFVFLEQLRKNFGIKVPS
Excerpt: UCP1 is phylogenetically related to mitochondrial dicarboxylate carriers, gaining thermogenic properties as a later evolutionary development (Hughes et al, [2009]; Robinson et al, [2008]). The mitochondrial dicarboxylate carrier (DIC, SLC25A10) and oxoglutarate carrier (OGC, SLC25A11) are most closely related to UCP1 (Gaudry et al, [2019]; Hughes et al, [2009]) and share many residues involved in nucleotide binding in UCP1, such as the arginine triplet at the contact points, R92 and Q85 (Jones et al, [2024]). Given the similarity of the central cavity of UCP1, OGC and DIC, we tested whether the dicarboxylate carriers have the ability to bind nucleotides. For this purpose, we purified human DIC and OGC, and tested whether nucleotides were able to generate a thermostability shift, as observed for their physiological substrates (Pyrihová et al, [2024]). However, all tested nucleotides caused a negligible shift with both DIC or OGC at all pH values tested between 6.0 and 8.0 (Fig. 4A; Appendix Fig. S5). Thus, despite having many residues in common (Fig. 4B–D), UCP1 has evolved to have a few specific residues that allow high-affinity binding of nucleotides without a strong selection for nucleobase.
Differential scanning fluorimetry (nanoDSF) (Alexandrov et al, [2008]) was carried out with 2 µg UCP1, DIC or OGC protein (100 mM MES/HEPES, pH range 6.0–8.0, 25 mM NaCl, 1 mM TCEP, 0.01% lauryl maltose neopentyl glycol and 0.01 mg/mL tetraoleoyl cardiolipin) and, when required, 1 mM nucleotide, as indicated. The proteins have the following number of tryptophans: UCP1 (two); OGC (two); DIC (one). The samples were loaded into nanoDSF-grade standard glass capillaries. The temperature was increased by […] every minute from 25 to 95 °C, the intrinsic fluorescence was measured in a Prometheus NT.48 nanoDSF device, and the apparent Tm was calculated with the PR.ThermControl software (NanoTemper Technologies).

UCP1 [3] = biological target: T1, UCP1; assay: as above; type: binding; conditions: for ΔTm at 1000 µM: read-out: thermal shift (ΔTm)

Nc1ccn([C@@H]2O[C@H](COP(=O)(O)OP(=O)(O)O)[C@@H](O)[C@H]2O)c(=O)n1 [CDP]
competition with GDP binding (UCP1 [1]): unable to displace the binding of GDP

Nc1ccn(C2OC(COP(=O)(O)OP(=O)(O)OP(=O)(O)O)C(O)C2O)c(=O)n1 (stereo not drawn) [CTP]
competition with GDP binding (UCP1 [1]): unable to displace the binding of GDP
binding affinity to UCP1 (in words) (UCP1 [2]; ITC): lowest affinity
Kd (UCP1 [2]; ITC, pH 6.0, 20 °C, mean ± standard deviation of three biological repeats (Fig. 2A-E)): 4.85 ± 0.69 µM
Kd (UCP1 [2]; ITC, single biological repeats (source data Fig. 2F)): 5.47 µM and 4.96 µM and 4.11 µM
isotherm data point (enthalpy change per injection) (UCP1 [2]; Molar ratio (Nucleotide/UCP) 0.120417, pH 6.0, 20 °C): -22.2743
isotherm data point (enthalpy change per injection) (UCP1 [2]; Molar ratio (Nucleotide/UCP) 0.181226, pH 6.0, 20 °C): -21.186
isotherm data point (enthalpy change per injection) (UCP1 [2]; Molar ratio (Nucleotide/UCP) 0.242439, pH 6.0, 20 °C): -19.9722
isotherm data point (enthalpy change per injection) (UCP1 [2]; Molar ratio (Nucleotide/UCP) 0.304059, pH 6.0, 20 °C): -20.0539
isotherm data point (enthalpy change per injection) (UCP1 [2]; Molar ratio (Nucleotide/UCP) 0.366087, pH 6.0, 20 °C): -20.6988
isotherm data point (enthalpy change per injection) (UCP1 [2]; Molar ratio (Nucleotide/UCP) 0.428528, pH 6.0, 20 °C): -18.255
isotherm data point (enthalpy change per injection) (UCP1 [2]; Molar ratio (Nucleotide/UCP) 0.491383, pH 6.0, 20 °C): -16.7607
isotherm data point (enthalpy change per injection) (UCP1 [2]; Molar ratio (Nucleotide/UCP) 0.554656, pH 6.0, 20 °C): -16.5202
isotherm data point (enthalpy change per injection) (UCP1 [2]; Molar ratio (Nucleotide/UCP) 0.618348, pH 6.0, 20 °C): -14.6191
isotherm data point (enthalpy change per injection) (UCP1 [2]; Molar ratio (Nucleotide/UCP) 0.682464, pH 6.0, 20 °C): -13.3617
isotherm data point (enthalpy change per injection) (UCP1 [2]; Molar ratio (Nucleotide/UCP) 0.747006, pH 6.0, 20 °C): -10.6677
isotherm data point (enthalpy change per injection) (UCP1 [2]; Molar ratio (Nucleotide/UCP) 0.811976, pH 6.0, 20 °C): -10.8499
isotherm data point (enthalpy change per injection) (UCP1 [2]; Molar ratio (Nucleotide/UCP) 0.877378, pH 6.0, 20 °C): -10.2913
isotherm data point (enthalpy change per injection) (UCP1 [2]; Molar ratio (Nucleotide/UCP) 0.943214, pH 6.0, 20 °C): -8.027
isotherm data point (enthalpy change per injection) (UCP1 [2]; Molar ratio (Nucleotide/UCP) 1.00949, pH 6.0, 20 °C): -6.97
isotherm data point (enthalpy change per injection) (UCP1 [2]; Molar ratio (Nucleotide/UCP) 1.0762, pH 6.0, 20 °C): -6.038
isotherm data point (enthalpy change per injection) (UCP1 [2]; Molar ratio (Nucleotide/UCP) 1.14336, pH 6.0, 20 °C): -5.024
isotherm data point (enthalpy change per injection) (UCP1 [2]; Molar ratio (Nucleotide/UCP) 1.21096, pH 6.0, 20 °C): -4.446
isotherm data point (enthalpy change per injection) (UCP1 [2]; Molar ratio (Nucleotide/UCP) 1.27901, pH 6.0, 20 °C): -2.802
isotherm data point (enthalpy change per injection) (UCP1 [2]; Molar ratio (Nucleotide/UCP) 1.34751, pH 6.0, 20 °C): -2.027
isotherm data point (enthalpy change per injection) (UCP1 [2]; Molar ratio (Nucleotide/UCP) 1.41647, pH 6.0, 20 °C): -1.98
isotherm data point (enthalpy change per injection) (UCP1 [2]; Molar ratio (Nucleotide/UCP) 1.48589, pH 6.0, 20 °C): -0.1226
isotherm data point (enthalpy change per injection) (UCP1 [2]; Molar ratio (Nucleotide/UCP) 1.55577, pH 6.0, 20 °C): -0.8262
isotherm data point (enthalpy change per injection) (UCP1 [2]; Molar ratio (Nucleotide/UCP) 1.62611, pH 6.0, 20 °C): -0.604
isotherm data point (enthalpy change per injection) (UCP1 [2]; Molar ratio (Nucleotide/UCP) 1.69692, pH 6.0, 20 °C): -1.2037
isotherm data point (enthalpy change per injection) (UCP1 [2]; Molar ratio (Nucleotide/UCP) 1.76819, pH 6.0, 20 °C): -0.3877
isotherm data point (enthalpy change per injection) (UCP1 [2]; Molar ratio (Nucleotide/UCP) 1.83995, pH 6.0, 20 °C): 0.4921
isotherm data point (enthalpy change per injection) (UCP1 [2]; Molar ratio (Nucleotide/UCP) 1.91217, pH 6.0, 20 °C): -0.1525
isotherm data point (enthalpy change per injection) (UCP1 [2]; Molar ratio (Nucleotide/UCP) 1.98488, pH 6.0, 20 °C): -0.1288
change in apparent melting temperature (ΔTm) of hDIC (human DIC (SLC25A10)): 0.0
temperature shift (ΔTm) (UCP1 [3]; 1 mM nucleotide, pH 6.0, detergent-solubilised UCP1, mean of three biological repeats): 12.5 °C
ΔTm at 1000 µM (UCP1 [3]; pH 6, 1 mM nucleotide, pH 6.0, single repeats (source data Fig. 1D)): 12.3 °C
ΔTm at 1000 µM (UCP1 [3]; pH 6.5, 1 mM nucleotide, pH 6.5, single repeats (source data Fig. 1D)): 7.9 °C
ΔTm at 1000 µM (UCP1 [3]; pH 7, 1 mM nucleotide, pH 7.0, single repeats (source data Fig. 1D)): 4.4 °C
